Laboratory results reported in patent US4338305A, “Use of LRH and LRH agonists” (American Home Products Corporation, priority 1975, dated 1982).
Structures can show the parent of a compound that is named as a salt. Where two headings read alike, the source gives them in different places. Non-standard residues stand in square brackets, D forms with d. Residues, ends and D or L forms follow the SMILES beside them. pGlu = O=C1CC[C@@H](C(=O)O)N1

What was measured:
[1] = test system: Female, Sprague-Dawley rats
Description: Female, Sprague-Dawley rats, 350±30 g., are caged daily (P.M.) with adult, sexually experienced Sprague-Dawley males. Vaginal smears are taken each A.M. after cohabitation. The presence of vaginal sperm is used as the index of mating and the initiation of pregnancy. Day 1 of pregnancy is taken as the day sperm is found in the vaginal smear. Mated females are then grouped separately. Treatment is begun at any time over the first 12 days of pregnancy at a divided dose (9 A.M. and 3 P.M.) or a single treatment. Claudogenic activity is defined for compounds administered over the first 7 days inclusive of pregnancy (Pre-implantation). Interceptive activity is defined for compounds administered days 7-12 inclusive of pregnancy (Post-implantation). Rats are sacrificed on day 14 (claudogen), day 18 (interceptive) or allowed to come to term prior to the option of sacrifice (claudogen or interceptive.) Rats containing at least one "Normal" fetus are considered pregnant.
For the purpose of defining the post-coital stages of pregnancy in the rat as an experimental model, the following schedule is provided in definition of post-coital contraceptive activity which, for the purpose of this disclosure, is intended to embrace both pre-(claudogenic) and post-(interceptive) implantation contraceptive activity: day 1--vaginal sperm; days 1-3--ova transport in oviducts, and fertilization; days 3-5 blastocyst free in uterine lumen; days 5-7--implantation into uterine wall; days>7--post implantation.

Proestrous female rats = test: Ovulation Induction in the Rat; assay type: in vivo; conditions: as a result of induced LH production
Description: (b) Ovulation Induction in the Rat
Proestrous female rats were injected intraperitoneally with a hypnotic dose of Nembutal about (~60 mg/kg) at 1:30 P.M. This treatment blocks the spontaneous ovulatory surge of pituitary LH which generally occurs between 2:00 and 4:00 P.M. Between 1:40 and 1:50 P.M. the recipients then received the test material via the jugular vein. The following morning the animals are sacrificed and the fallopian tubes examined for ova under a dissecting microscope.

[2] = literature report; cited from earlier work
[3] = PO, total daily dose 500 μg/rat, Rx days 7-12 post coitus
[4] = SC, total daily dose 5.0 μg/rat, Rx days 7-12 post coitus
[5] = SC, total daily dose 100 μg/rat, Rx days 1-7 post coitus
[6] = PO, total daily dose 500 μg/rat, Rx days 1-7 post coitus
[7] = SC, total daily dose 100 μg/rat, Rx days 1-3 post coitus
[8] = SC, total daily dose 300 μg/rat, Rx days 1-3 post coitus
[9] = SC, total daily dose 200 μg/rat, Rx days 1-3 post coitus
[10] = PO, total daily dose 1000 μg/rat, Rx days 1-7 post coitus
[11] = PO, total daily dose 1000 μg/rat, Rx days 7-12 post coitus
[12] = SC, total daily dose 5000 μg/rat, Rx day 3 post coitus

CCNC(=O)[C@@H]1CCCN1C(=O)[C@H](CCCNC(=N)N)NC(=O)[C@H](CC(C)C)NC(=O)[C@@H](CC)NC(=O)[C@H](Cc1ccc(O)cc1)NC(=O)[C@H](CO)NC(=O)[C@H](Cc1c[nH]c2ccccc12)NC(=O)[C@H](Cc1c[nH]cn1)NC(=O)[C@@H]1CCC(=O)N1
% inhibition of Pregnancy [1, 3]: 20% | % inhibition of Pregnancy ([1]; SC, total daily dose 5.0 μg/rat, Rx days 1-7 post coitus): 40% | % inhibition of Pregnancy [1, 4]: 80% | % inhibition of Pregnancy [1, 5]: 100%

CCNC(=O)[C@@H]1CCCN1C(=O)[C@H](CCCNC(=N)N)NC(=O)[C@H](CC(C)C)NC(=O)[C@@H](CCC(=O)O)NC(=O)[C@H](Cc1ccc(O)cc1)NC(=O)[C@H](CO)NC(=O)[C@H](Cc1c[nH]c2ccccc12)NC(=O)[C@H](Cc1c[nH]cn1)NC(=O)[C@@H]1CCC(=O)N1 [[D-Glu^6, des-Gly-NH2^10]LRH ethylamide]
activity relative to LRH as ovulation inducing agents (Proestrous female rats): > 40 times

CC(C)C[C@H](NC(=O)[C@@H](CCCCN)NC(=O)[C@H](Cc1ccc(O)cc1)NC(=O)[C@H](CO)NC(=O)[C@H](Cc1c[nH]c2ccccc12)NC(=O)[C@H](Cc1c[nH]cn1)NC(=O)[C@@H]1CCC(=O)N1)C(=O)N[C@@H](CCCNC(=N)N)C(=O)N1CCC[C@H]1C(=O)NCC(N)=O [[D-Lys^6]LRH, L-Pyroglutamyl-L-histidyl-L-tryptophyl-L-seryl-L-tyrosyl-D-lysyl-L-leucyl-L-arginyl-L-prolyl-glycinamide]
% inhibition of Pregnancy [1, 6]: 40% | % inhibition of Pregnancy ([1]; SC, total daily dose 5.0 μg/rat, Rx days 1-12 post coitus): 20% | % inhibition of Pregnancy [1, 7]: 0% | % inhibition of Pregnancy [1, 8]: 60% | % inhibition of Pregnancy ([1]; SC, total daily dose 300 μg/rat, Rx days 1-7 post coitus): 100%

CCNC(=O)[C@@H]1CCCN1C(=O)[C@H](CCCNC(=N)N)NC(=O)[C@H](CC(C)C)NC(=O)[C@@H](CC(=O)O)NC(=O)[C@H](Cc1ccc(O)cc1)NC(=O)[C@H](CO)NC(=O)[C@H](Cc1c[nH]c2ccccc12)NC(=O)[C@H](Cc1c[nH]cn1)NC(=O)[C@@H]1CCC(=O)N1 [[D-Asp^6, des-Gly-NH2^10]LRH ethylamide]
activity relative to LRH as ovulation inducing agents (Proestrous female rats): > 40 times

CCNC(=O)[C@@H]1CCCN1C(=O)[C@H](CCCNC(=N)N)NC(=O)[C@H](CS)NC(=O)[C@@H](C)NC(=O)[C@H](Cc1ccc(O)cc1)NC(=O)[C@H](CO)NC(=O)[C@H](Cc1c[nH]c2ccccc12)NC(=O)[C@H](Cc1c[nH]cn1)NC(=O)[C@@H]1CCC(=O)N1 ([pGlu]HWSY[dA]CRP-NHEt)
activity relative to LRH as ovulation inducing agents (Proestrous female rats): > 40 times

CCNC(=O)[C@@H]1CCCN1C(=O)[C@H](CCCNC(=N)N)NC(=O)[C@H](CC(C)C)NC(=O)[C@@H](CCCCN)NC(=O)[C@H](Cc1ccc(O)cc1)NC(=O)[C@H](CO)NC(=O)[C@H](Cc1c[nH]c2ccccc12)NC(=O)[C@H](Cc1c[nH]cn1)NC(=O)[C@@H]1CCC(=O)N1 [[D-Lys^6, des-Gly-NH2^10]LRH ethylamide]
activity relative to LRH as ovulation inducing agents (Proestrous female rats): > 40 times

CCNC(=O)[C@@H]1CCCN1C(=O)[C@H](CCCNC(=N)N)NC(=O)[C@H](CC(C)C)NC(=O)[C@@H](CC(C)C)NC(=O)[C@H](Cc1ccc(O)cc1)NC(=O)[C@H](CO)NC(=O)[C@H](Cc1c[nH]c2ccccc12)NC(=O)[C@H](Cc1c[nH]cn1)NC(=O)[C@@H]1CCC(=O)N1
% inhibition of Pregnancy [1, 9]: 20% | % inhibition of Pregnancy ([1]; SC, total daily dose 200 μg/rat, Rx days 1-7 post coitus): 100%

CC(C)C[C@H](NC(=O)CNC(=O)[C@H](Cc1ccc(O)cc1)NC(=O)[C@H](CO)NC(=O)[C@H](Cc1c[nH]c2ccccc12)NC(=O)[C@H](Cc1cnc[nH]1)NC(=O)[C@@H]1CCC(=O)N1)C(=O)N[C@@H](CCCNC(=N)N)C(=O)N1CCC[C@H]1C(=O)NCC(N)=O [LRH, L-(5-oxo-prolyl)-L-histidyl-L-tryptophyl-L-seryl-L-tyrosyl-glycyl-L-leucyl-L-arginyl-L-prolyl-glycinamide, reference compound]
% inhibition of Pregnancy [1, 6]: 20% | % inhibition of Pregnancy [1, 3]: 0% | % inhibition of Pregnancy [1, 10]: 60% | % inhibition of Pregnancy [1, 11]: 100% | % inhibition of Pregnancy ([1]; SC, total daily dose 50 μg/rat, Rx days 1-7 post coitus): 0% | % inhibition of Pregnancy [1, 7]: 0% | % inhibition of Pregnancy [1, 5]: 100% | % inhibition of Pregnancy ([1]; SC, total daily dose 200 μg/rat, Rx days 7-12 post coitus): 50% | % inhibition of Pregnancy [1, 8]: 20% | % inhibition of Pregnancy ([1]; SC, total daily dose 500 μg/rat, Rx days 1-3 post coitus): 40% | % inhibition of Pregnancy ([1]; SC, total daily dose 1000 μg/rat, Rx days 1-3 post coitus): 40% | % inhibition of Pregnancy ([1]; SC, total daily dose 1000 μg/rat, Rx days 1-7 post coitus): 100% | % inhibition of Pregnancy [1, 12]: 100% | post-coital anti-pregnancy (claudogenic/interceptive) effect ([1]; rat, administered post-coitally): effective in inhibiting pregnancy | teratogenicity ([1]; rat, in vivo): some signs of teratogenicity

CC(C)C[C@H](NC(=O)C(C)(C)NC(=O)[C@H](Cc1ccc(O)cc1)NC(=O)[C@H](CO)NC(=O)[C@H](Cc1c[nH]c2ccccc12)NC(=O)[C@H](Cc1c[nH]cn1)NC(=O)[C@@H]1CCC(=O)N1)C(=O)N[C@@H](CCCNC(=N)N)C(=O)N1CCC[C@H]1C(=O)NCC(N)=O [[2-methyl-Ala^6]LRH, L-(5-oxoprolyl)-L-histidyl-L-tryptophyl-L-seryl-L-tyrosyl-2-methylalanyl-L-leucyl-L-arginyl-L-prolylglycinamide acetate salt]
% inhibition of Pregnancy [1, 5]: 75% | % inhibition of Pregnancy ([1]; SC, total daily dose 500 μg/rat, Rx days 1-7 post coitus): 100%

CCNC(=O)[C@@H]1CCCN1C(=O)[C@H](CCCNC(=N)N)NC(=O)[C@H](CC(C)C)NC(=O)[C@@H](C)NC(=O)[C@H](Cc1ccc(O)cc1)NC(=O)[C@H](CO)NC(=O)[C@H](Cc1c[nH]c2ccccc12)NC(=O)[C@H](Cc1c[nH]cn1)NC(=O)[C@@H]1CCC(=O)N1
% inhibition of Pregnancy ([1]; PO, total daily dose 200 μg/rat, Rx days 7-12 post coitus): 0% | % inhibition of Pregnancy [1, 3]: 67% | % inhibition of Pregnancy [1, 10]: 100% | % inhibition of Pregnancy [1, 11]: 100% | % inhibition of Pregnancy ([1]; SC, total daily dose 0.10 μg/rat, Rx days 7-12 post coitus): 0% | % inhibition of Pregnancy ([1]; SC, total daily dose 1.0 μg/rat, Rx days 1-7 post coitus): 100% | % inhibition of Pregnancy ([1]; SC, total daily dose 1.0 μg/rat, Rx days 7-12 post coitus): 100% | % inhibition of Pregnancy [1, 4]: 100% | % inhibition of Pregnancy ([1]; SC, total daily dose 50 μg/rat, Rx days 1-3 post coitus): 40% | % inhibition of Pregnancy [1, 7]: 80% | % inhibition of Pregnancy [1, 5]: 100% | % inhibition of Pregnancy [1, 9]: 100% | % inhibition of Pregnancy [1, 12]: 100% | % inhibition of Pregnancy ([1]; SC, total daily dose 5000 μg/rat, Rx day 7 post coitus): 0% | % inhibition of Pregnancy ([1]; SC, total daily dose 5000 μg/rat, Rx day 8 post coitus): 100% | % inhibition of Pregnancy ([1]; SC, total daily dose .002 μg/rat, Rx days 1-7 post coitus): 0% | % inhibition of Pregnancy ([1]; SC, total daily dose .010 μg/rat, Rx days 1-7 post coitus): 30% | activity relative to LRH [2]: ~50 times | potency/activity versus LRH, in words [2]: markedly more potent than LRH

CC(C)C[C@H](NC(=O)[C@@H](C)NC(=O)[C@H](Cc1ccc(O)cc1)NC(=O)[C@H](CO)NC(=O)[C@H](Cc1c[nH]c2ccccc12)NC(=O)[C@H](Cc1c[nH]cn1)NC(=O)[C@@H]1CCC(=O)N1)C(=O)N[C@@H](CCCNC(=N)N)C(=O)N1CCC[C@H]1C(=O)NCC(N)=O [[D-Ala^6]LRH]
% inhibition of Pregnancy [1, 7]: 17% | % inhibition of Pregnancy [1, 8]: 50%

CCNC(=O)[C@@H]1CCCN1C(=O)[C@H](CCCNC(=N)N)NC(=O)[C@H](CS)NC(=O)[C@@H](CC(C)C)NC(=O)[C@H](Cc1ccc(O)cc1)NC(=O)[C@H](CO)NC(=O)[C@H](Cc1c[nH]c2ccccc12)NC(=O)[C@H](Cc1c[nH]cn1)NC(=O)[C@@H]1CCC(=O)N1 ([pGlu]HWSY[dL]CRP-NHEt)
activity relative to LRH as ovulation inducing agents (Proestrous female rats): > 40 times

CCNC(=O)[C@@H]1CCCN1C(=O)[C@H](CCCNC(=N)N)NC(=O)[C@H](CO)NC(=O)[C@@H](CC(C)C)NC(=O)[C@H](Cc1ccc(O)cc1)NC(=O)[C@H](CO)NC(=O)[C@H](Cc1c[nH]c2ccccc12)NC(=O)[C@H](Cc1c[nH]cn1)NC(=O)[C@@H]1CCC(=O)N1 ([pGlu]HWSY[dL]SRP-NHEt)
activity relative to LRH as ovulation inducing agents (Proestrous female rats): > 40 times

CCNC(=O)[C@@H]1CCCN1C(=O)[C@H](CCCNC(=N)N)NC(=O)[C@H](CC(C)C)NC(=O)[C@@H](CS)NC(=O)[C@H](Cc1ccc(O)cc1)NC(=O)[C@H](CO)NC(=O)[C@H](Cc1c[nH]c2ccccc12)NC(=O)[C@H](Cc1c[nH]cn1)NC(=O)[C@@H]1CCC(=O)N1 [[D-Cys^6, des-Gly-NH2^10]LRH ethylamide]
activity relative to LRH as ovulation inducing agents (Proestrous female rats): > 40 times

CCNC(=O)[C@@H]1CCCN1C(=O)[C@H](CCCNC(=N)N)NC(=O)[C@H](CO)NC(=O)[C@@H](CO)NC(=O)[C@H](Cc1ccc(O)cc1)NC(=O)[C@H](CO)NC(=O)[C@H](Cc1c[nH]c2ccccc12)NC(=O)[C@H](Cc1c[nH]cn1)NC(=O)[C@@H]1CCC(=O)N1 ([pGlu]HWSY[dS]SRP-NHEt)
activity relative to LRH as ovulation inducing agents (Proestrous female rats): > 40 times
